The values below come from US9861615B2, “Methods and pharmaceutical compositions for the treatment of beta-thalassemias” (INSERM (INSTITUT NATIONAL DE LA SANTE ET DE LA RECHERCHE …, priority 2013, dated 2018).

The test system of data set [1] is CD36+D6 erythroid progenitors from cord blood. The data set can be described thus: Cell death of CD36+D6 cells during EPO starvation. Format: cell-based, human. Conditions: EPO starvation during 20 h (80% of cell death without KPT). How it is done:
FIG. 3B. EPO starvation during 20 h results in 80% of cell death. Treatment of CD36+D6 with KPT at 100 nM, 333 nM during EPO starvation decreases cell death, of 49% and 39% respectively, compared to the absence of KPT treatment.
(§1) Umbilical cord blood units from normal full-term deliveries were obtained, after informed mother's consent, from the Obstetrics Unit of Hôpital Necker-Enfants Malades. CD36+ erythroid progenitors, generated from 7 days IL-6+IL3+SCF− cultured CD34 progenitors isolated from cord blood (Miltenyi CD34 Progenitor Cell Isolation Kit), were cultured in the presence of IL3+SCF+Epo in IMDM (Gibco cell culture) supplemented with 15% BIT 9500 (Stem Cell Technologies).

The test system of data set [2] is HSP70 nuclear retention in CD36+D6 from cord blood. The data set can be described thus: HSP70 nuclear retention in cord blood CD36+D6 under EPO starvation. The following applies: after 20 h of treatment. Format: cell-based, human. How it is done: as §1
5·10^4 cells were spin on slides, acetone fixated, hydrated with cold 1×PBS 1% BSA for 30 minutes, treated with formaldehyde for 15 min (Sigma), then with methanol (Prolabo) for 10 minutes at room temperature. Cells were then permeabilized with 1×PBS 0.2% triton X100 (Sigma) for 10 min at 4° C., washed and incubated in 10% BSA for 30 minutes. They were then sequentially incubated with antibodies diluted in 1×PBS 1% BSA 0.1% tween (Sigma). Nuclei were stained with DAPI and slides were examined with a confocal laser microscope (LSM 700 Carl Zeiss).

Data set [3] concerns CD36+ erythroid progenitors from cord blood. Description: Toxicity of KPT on CD36+ erythroid progenitors, normal EPO. Format: cell-based, human. The following applies: day 6 (D6) of culture; 33 nM, 100 nM, 333 nM and 1000 nM; normal concentrations of EPO; until 20 h of treatment. The protocol: FIG. 3A. KPT is not toxic for CD36+ erythroid progenitors from cord blood at day 6 (D6) of culture, when diluted at concentrations 33 nM, 100 nM, 333 nM and 1000 nM in CD36+ culture media, with normal concentrations of erythropoietin (EPO), until 20 h of treatment.
as §1

Data set [4] relates to CD36+ cells derived from circulating CD34+ cells from Beta thalassemia major patient. Description: Proliferation, cell death and terminal maturation of beta-thalassemia CD36+ cells. Format: cell-based, human. How it is done: FIG. 6. CD36+ cells, derived from circulating CD34+ cells from Beta thalassemia major patient, were treated or not with KPT molecule (KPT 0=DMSO, KPT 100=100 nM, KPT 1000=1000 nM), and analysed at 24 h, 48 h, 72 h and 96 h of treatment. Day 0 of treatment corresponds to day 5 of CD36+ culture. a) Proliferation of CD36+ cells between 24 h and 96 h, for the different conditions of KPT treatment. b) Cell death of CD36+ cells between 48 h and 96 h, for the different conditions of KPT treatment. c) Flow cytometry analysis of Mean fluorescence intensity (MFI) for Band 3 protein, in CD36+ cells, in the different conditions of KPT treatment. d) MGG count of immature, polychromatophiles and acidophiles+reticulocytes at 96 h of treatment, for the different conditions of KPT treatment and e) corresponding maturation indexes.
FIG. 7: CD36+ cells, derived from circulating CD34+ cells from Beta thalassemia major patient, were treated or not with KPT molecule (KPT 0=DMSO, KPT 100=100 nM, KPT 1000=1000 nM), and analysed at 24 h, 48 h, and 72 h of treatment. Day 0 of treatment corresponds to day 6 of CD36+ culture. a) Proliferation of CD36+ cells between 24 h and 72 h, for the different conditions of KPT treatment. b) Cell death of CD36+ cells between 24 h and 72 h, for the different conditions of KPT treatment. c) Flow cytometry analysis of MFI for Band 3 protein, in CD36+ cells, in the different conditions of KPT treatment. d) Flow cytometry analysis of the number of small, alive, CD36+ cells positive for fœtal haemoglobin in the different conditions of KPT treatment. e) MGG count of immature, polychromatophiles and acidophiles+reticulocytes at 48 h of treatment, for the different conditions KPT 0 and KPT 100 nM and f) corresponding maturation indexes.
(§2) Data from FIG. 6 and FIG. 7 are from two different experiments on CD36+ cells from a beta-thalassemia patient. Data from FIG. 8 have been performed with cells from FIG. 7 experiment. Beta-thalassemia erythroblasts were generated in vitro from peripheral blood circulating CD34+ cells from an adult patient with beta-thalassemia major (β^0-TM). This study was performed according to the Helsinky Declaration with approval from the ethics committee of our institution.
In vitro, maturation is arrested at the polychromatophilic stage in beta-thalassemia erythroid progenitors. To quantify the maturation arrest in beta-thalassemia cells, we use an index of terminal maturation as the number (acidophilic cells+reticulocytes per slide)*100 divided by the number of polychromatophilic cells per slide (Arlet J b et al. Nature oct 2014).

Data set [5] concerns HSP70 nuclear localization in beta-thalassemia CD36+ cells. The data set can be described thus: HSP70 localization and GATA1 fluorescence in beta-thalassemia CD36+ cells. In kind it is cell-based, human. The protocol: FIG. 8. CD36+ cells from the same experiment as FIG. […] Percentages of cells containing HSP70 located in the nucleus (black) or in the cytoplasm (grey), gated on the total population of cells analyzed, for the different treatment conditions: KPT 0 (a), KPT 100 nM (b) and KPT 1000 nM (c). d) HSP70 cytoplasm/nuclear ratio for the three treatment conditions e) Mean intensity and standard deviation for GATA1 transcription factor fluorescence.
as §2
Amnis Technology enables to analyse fluorescence localization in a large number of cells beforehand labelled. Here we show the percentage of cells positive for HSP70 labelling in the nucleus, or in the cytoplasm, for conditions KPT 0, 100 nM and 1000 nM (FIG. 8). We can observe that the fraction of cells positive for HSP70 in the nucleus increases in KPT 100 nM and 1000 nM conditions (FIGS. 8b and 8c), compared to KPT 0 (FIG. 8a).

Another data set deals with XPO1 (Homo sapiens, UniProt O14980). The following applies: cited from earlier work.
Sequence of XPO1 (O14980 whole entry): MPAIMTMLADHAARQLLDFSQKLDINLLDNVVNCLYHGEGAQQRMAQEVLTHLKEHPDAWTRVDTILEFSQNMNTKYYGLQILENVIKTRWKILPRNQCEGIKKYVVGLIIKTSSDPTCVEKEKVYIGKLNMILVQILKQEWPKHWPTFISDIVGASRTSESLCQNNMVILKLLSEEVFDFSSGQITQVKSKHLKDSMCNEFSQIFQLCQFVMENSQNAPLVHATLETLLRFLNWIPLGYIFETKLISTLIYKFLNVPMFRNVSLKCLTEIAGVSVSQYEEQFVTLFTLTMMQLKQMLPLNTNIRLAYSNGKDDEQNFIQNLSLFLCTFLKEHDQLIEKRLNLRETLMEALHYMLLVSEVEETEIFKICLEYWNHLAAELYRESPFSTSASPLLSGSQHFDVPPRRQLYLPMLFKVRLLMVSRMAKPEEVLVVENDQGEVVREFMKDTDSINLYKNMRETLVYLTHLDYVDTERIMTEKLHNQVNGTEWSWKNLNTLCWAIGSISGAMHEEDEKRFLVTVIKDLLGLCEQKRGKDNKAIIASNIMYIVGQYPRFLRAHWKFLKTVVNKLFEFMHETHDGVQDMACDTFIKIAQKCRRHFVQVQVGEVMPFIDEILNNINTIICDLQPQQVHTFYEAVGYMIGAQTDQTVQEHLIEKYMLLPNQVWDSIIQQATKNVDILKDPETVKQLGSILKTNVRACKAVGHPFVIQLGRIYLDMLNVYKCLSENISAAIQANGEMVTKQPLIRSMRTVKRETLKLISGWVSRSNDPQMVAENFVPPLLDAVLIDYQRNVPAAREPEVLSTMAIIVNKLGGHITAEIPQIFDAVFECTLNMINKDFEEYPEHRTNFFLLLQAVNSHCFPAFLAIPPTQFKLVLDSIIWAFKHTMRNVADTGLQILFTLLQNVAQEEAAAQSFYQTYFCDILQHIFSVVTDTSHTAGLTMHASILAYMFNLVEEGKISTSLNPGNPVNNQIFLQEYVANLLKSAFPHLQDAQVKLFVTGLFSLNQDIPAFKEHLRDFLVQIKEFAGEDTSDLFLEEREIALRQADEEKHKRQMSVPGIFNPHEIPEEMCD

As for `FC(F)(F)c1cc(-c2ncn(/C=C\c3nnco3)n2)cc(C(F)(F)F)c1` [KPT], the “decrease of cell death compared to the absence of KPT treatment” value is 49% in data set [1] (KPT 100 nM) and 39% in data set [1] (KPT 333 nM). For the same compound, the HSP70 nuclear retention result in data set [2] is “induces HSP70 nuclear retention”. The “toxicity for CD36+ erythroid progenitors” value in data set [3] is on record as “not toxic”. In addition, the “proportion of HbF positive among the population of small alive cells” value in data set [4] (72 hours of treatment with 1000 nM, compared to KPT 0 and KPT 100 nM) is reported as “higher”. Further, the “maturation index (acidophilic cells+reticulocytes)*100 / polychromatophilic cells” value in data set [4] (KPT 100 nM and 1000 nM compared to control condition KPT 0) is “increases”. Moreover, in data set [4] (KPT 100 nM or 1000 nM, at 96 h of treatment (FIG. 6c) and at 72 h of treatment (FIG. 7c), flow cytometry), the “mean fluorescence intensity (MFI) of Band 3 protein labelling” value was “increases”. Further, the “cytotoxicity (cell death of CD36+ cells)” value in data set [4] (KPT 1000 nM compared to KPT 0 and KPT 100 nM) is given as “little cytotoxicity”. Further, the “proliferation of CD36+ cells” value in data set [4] (KPT 1000 nM compared to KPT 0 and KPT 100 nM, only in the experiment with high proliferation rate in control condition) is “decreased proliferation”. Besides, the HSP70 cyto/nuclear fraction result in data set [5] (KPT 100 nM and 1000 nM compared to KPT 0, 24 h of treatment) was “decrease”. In data set [5] (KPT 100 nM and 1000 nM compared to KPT 0, 24 h of treatment, Amnis), the “fraction of cells positive for HSP70 in the nucleus” value was “increases”. The “mean of fluorescence intensity of GATA1 labelling” value in data set [5] (KPT treatment conditions of FIG. 8, 24 h of treatment) was “increase”. For the same compound, the HSP70 nuclear localization result in data set [5] (beta-thalassemia CD36+D8 cells, 72 h of treatment at 100 nM, compared to non treated cells) is reported as “induces HSP70 nuclear localization”.
For the compound `CCC(=C/[C@H](C)C/C=C/C(C)=C/[C@@H](C)C(=O)[C@@H](C)[C@H](O)[C@@H](C)C/C(C)=C/C(=O)O)/C=C/[C@@H]1OC(=O)C=C[C@@H]1C` [Leptomycin B], the “HSP70 nuclear retention in erythroid precursor cells” value on XPO1 is given as “induces HSP70 nuclear retention”.
